Where “and” joins values, the source holds several entries; their conditions need not be identical. Equal entries are not always repeated. Toxic doses and inconclusive results are not listed. Rule for the calls: active = survival T/C of 150% or more; inactive = T/C below 125% in these data.
Tested on: P388 leukemia ip, CD2F1 mice, survival T/C
Assay: NCI In Vivo Anticancer Drug Screen. Data for tumor model P388 Leukemia (intraperitoneal) in CD2F1 (CDF1) mice
Settings: endpoint: median survival time, vehicle: saline, higher = longer survival
In short: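 Mice carrying the transplanted tumor received test compound or vehicle. Survival was recorded in each group, and the value is the treated-group measurement divided by that of the vehicle-treated control group.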

Measured: T/C

O=C1OC(C(O)CO)C(O)=C1O (centres undefined)
inactive: dose: 0.05 mg/kg/injection, schedule: Q01DX005 (iv) 108 % of control | dose: 0.05 mg/kg/injection, schedule: Q01DX009 (im) 100 % of control | dose: 0.05 mg/kg/injection, schedule: Q01DX009 (oral) 100 % of control | dose: 0.1 mg/kg/injection, schedule: Q01DX005 (iv) 117 % of control | dose: 0.1 mg/kg/injection, schedule: Q01DX009 (im) 100 % of control | dose: 0.1 mg/kg/injection, schedule: Q01DX009 (oral) 100 % of control and 104 % of control | dose: 0.1 mg/kg/injection, schedule: Q01DX009 (sc) 109 % of control | dose: 0.1 mg/kg/injection, schedule: Q08HX010 (ip) 99 % of control | dose: 0.2 mg/kg/injection, schedule: Q01DX005 (iv) 104 % of control | dose: 0.2 mg/kg/injection, schedule: Q01DX009 (im) 100 % of control | dose: 0.2 mg/kg/injection, schedule: Q01DX009 (oral) 100 % of control | dose: 0.2 mg/kg/injection, schedule: Q01DX009 (sc) 109 % of control | dose: 0.2 mg/kg/injection, schedule: Q08HX010 (ip) 99 % of control | dose: 0.39 mg/kg/injection, schedule: Q01DX005 (iv) 113 % of control | dose: 0.39 mg/kg/injection, schedule: Q01DX009 (im) 104 % of control | dose: 0.39 mg/kg/injection, schedule: Q01DX009 (oral) 100 % of control and 108 % of control | dose: 0.39 mg/kg/injection, schedule: Q01DX009 (sc) 100 % of control | dose: 0.4 mg/kg/injection, schedule: Q08HX010 (ip) 99 % of control | dose: 0.78 mg/kg/injection, schedule: Q01DX005 (iv) 104 % of control | dose: 0.78 mg/kg/injection, schedule: Q01DX009 (im) 104 % of control | dose: 0.78 mg/kg/injection, schedule: Q01DX009 (oral) 100 % of control and 95 % of control | dose: 0.78 mg/kg/injection, schedule: Q01DX009 (sc) 109 % of control | dose: 1.56 mg/kg/injection, schedule: Q01DX005 (iv) 104 % of control | dose: 1.56 mg/kg/injection, schedule: Q01DX009 (im) 100 % of control | dose: 1.56 mg/kg/injection, schedule: Q01DX009 (oral) 100 % of control and 104 % of control | dose: 1.56 mg/kg/injection, schedule: Q01DX009 (sc) 100 % of control | dose: 3.13 mg/kg/injection, schedule: Q01DX005 (iv) 104 % of control | dose: 3.13 mg/kg/injection, schedule: Q01DX009 (im) 104 % of control | dose: 3.13 mg/kg/injection, schedule: Q01DX009 (oral) 100 % of control and 116 % of control | dose: 3.13 mg/kg/injection, schedule: Q01DX009 (sc) 100 % of control | dose: 6.25 mg/kg/injection, schedule: Q01DX005 (iv) 104 % of control | dose: 6.25 mg/kg/injection, schedule: Q01DX009 (im) 104 % of control | dose: 6.25 mg/kg/injection, schedule: Q01DX009 (oral) 100 % of control and 112 % of control | dose: 6.25 mg/kg/injection, schedule: Q01DX009 (sc) 95 % of control | dose: 10.0 mg/kg/injection, schedule: Q01DX005 (ip) 100 % of control | dose: 12.5 mg/kg/injection, schedule: Q01DX005 (iv) 104 % of control | dose: 12.5 mg/kg/injection, schedule: Q01DX009 (im) 109 % of control | dose: 12.5 mg/kg/injection, schedule: Q01DX009 (oral) 100 % of control and 108 % of control | dose: 12.5 mg/kg/injection, schedule: Q01DX009 (sc) 104 % of control | dose: 20.0 mg/kg/injection, schedule: Q01DX005 (ip) 100 % of control | dose: 25.0 mg/kg/injection, schedule: Q01DX005 (iv) 104 % of control | dose: 25.0 mg/kg/injection, schedule: Q01DX009 (im) 100 % of control | dose: 25.0 mg/kg/injection, schedule: Q01DX009 (oral) 100 % of control and 104 % of control | dose: 25.0 mg/kg/injection, schedule: Q01DX009 (sc) 100 % of control | dose: 40.0 mg/kg/injection, schedule: Q01DX005 (ip) 103 % of control | dose: 50.0 mg/kg/injection, schedule: Q01DX005 (iv) 117 % of control | dose: 50.0 mg/kg/injection, schedule: Q01DX009 (im) 109 % of control | dose: 50.0 mg/kg/injection, schedule: Q01DX009 (oral) 100 % of control and 108 % of control | dose: 50.0 mg/kg/injection, schedule: Q01DX009 (sc) 100 % of control | dose: 60.0 mg/kg/injection, schedule: Q01DX005 (ip) 100 % of control | dose: 100.0 mg/kg/injection, schedule: Q01DX005 (iv) 100 % of control | dose: 100.0 mg/kg/injection, schedule: Q01DX009 (im) 104 % of control | dose: 100.0 mg/kg/injection, schedule: Q01DX009 (oral) 100 % of control | dose: 100.0 mg/kg/injection, schedule: Q01DX009 (sc) 100 % of control | dose: 120.0 mg/kg/injection, schedule: Q01DX005 (ip) 102 % of control | dose: 200.0 mg/kg/injection, schedule: Q01DX005 (iv) 104 % of control | dose: 200.0 mg/kg/injection, schedule: Q01DX009 (im) 104 % of control | dose: 200.0 mg/kg/injection, schedule: Q01DX009 (oral) 100 % of control and 104 % of control | dose: 200.0 mg/kg/injection, schedule: Q01DX009 (sc) 90 % of control | dose: 250.0 mg/kg/injection, schedule: Q01DX005 (ip) 86 % of control | dose: 300.0 mg/kg/injection, schedule: Q08HX010 (ip) 99 % of control | dose: 400.0 mg/kg/injection, schedule: Q01DX005 (iv) 100 % of control | dose: 400.0 mg/kg/injection, schedule: Q01DX009 (im) 100 % of control | dose: 400.0 mg/kg/injection, schedule: Q01DX009 (ip) 110 % of control and 77 % of control | dose: 400.0 mg/kg/injection, schedule: Q01DX009 (oral) 108 % of control and 95 % of control | dose: 400.0 mg/kg/injection, schedule: Q01DX009 (sc) 104 % of control | dose: 500.0 mg/kg/injection, schedule: Q01DX005 (ip) 86 % of control | dose: 600.0 mg/kg/injection, schedule: Q08HX010 (ip) 102 % of control and 94 % of control | dose: 800.0 mg/kg/injection, schedule: Q01DX009 (im) 100 % of control | dose: 800.0 mg/kg/injection, schedule: Q01DX009 (ip) 99 % of control and 94 % of control | dose: 800.0 mg/kg/injection, schedule: Q01DX009 (oral) 100 % of control and 108 % of control | dose: 800.0 mg/kg/injection, schedule: Q01DX009 (sc) 95 % of control | dose: 1000.0 mg/kg/injection, schedule: Q01DX005 (ip) 87 % of control | dose: 1200.0 mg/kg/injection, schedule: Q01DX009 (ip) 110 % of control | dose: 1200.0 mg/kg/injection, schedule: Q08HX010 (ip) 101 % of control and 94 % of control | dose: 1600.0 mg/kg/injection, schedule: Q01DX009 (im) 100 % of control | dose: 1600.0 mg/kg/injection, schedule: Q01DX009 (ip) 102 % of control and 61 % of control | dose: 1600.0 mg/kg/injection, schedule: Q01DX009 (oral) 100 % of control and 91 % of control | dose: 1600.0 mg/kg/injection, schedule: Q01DX009 (sc) 104 % of control
